The text below walks through data of US20230045421A1 (priority 2018, published 2023).

pEC50: −log10 of the molar value.

The first assay relates to HBV rcDNA. The experiment in a line: HepDE19 assay with bDNA quantitation of HBV rcDNA. Type of assay: cell-based, hepatitis B virus. The settings on record: HepDE19 assay, inhibition of formation of relaxed circular DNA (rcDNA), bDNA quantitation; read-out: DE-19bDNA EC50. The method, boiled down: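 HepDE19 cells (HepG2-derived, Tet-regulated HBV replication) were deprived of tetracycline and then exposed to compounds for 7 days at 37 °C in 0.5% DMSO, 8-point titration from 25 μM. rcDNA was quantified by bDNA and EC50/EC90 came from 4-parameter fits. CC50 was measured by CellTiter-Glo ATP content on replicate plates after 4 days.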
By pEC50 is commonly meant −log10 of the EC50, conventionally taken in molar units. As for `CC(c1cnc(S(C)(=O)=O)c2ccccc12)N(C)C(=O)Nc1ccc(F)c(Cl)c1` (single isomer, unassigned) [Compound 314, 3-(3-Chloro-4-fluorophenyl)-1-methyl-1-(1-(1-(methylsulfonyl)isoquinolin-4-yl)ethyl)urea], the negative-log EC50 (pEC50) was 5.08.

With `CC(c1cnc(S(C)(=O)=O)c2ccccc12)N(C)C(=O)Nc1ccc(F)c(Cl)c1` (single isomer, unassigned) [Compound 315, 3-(3-Chloro-4-fluorophenyl)-1-methyl-1-(1-(1-(methylsulfonyl)isoquinolin-4-yl)ethyl)urea], the negative logarithm of the EC50 (pEC50) was 6.10.

As for `CNC(=O)c1ncc(C(C)N(C)C(=O)Nc2ccc(F)c(Cl)c2)c2ccccc12` (single isomer, unassigned) [Compound 316, 4-(1-(3-(3-Chloro-4-fluorophenyl)-1-methylureido)ethyl)-N-methylisoquinoline-1-carboxamide], the negative logarithm of the EC50 (pEC50) is 5.12.

On to `CNC(=O)c1ncc(C(C)N(C)C(=O)Nc2ccc(F)c(Cl)c2)c2ccccc12` (single isomer, unassigned) [Compound 317, 4-(1-(3-(3-Chloro-4-fluorophenyl)-1-methylureido)ethyl)-N-methylisoquinoline-1-carboxamide], for which the negative logarithm of the EC50 (pEC50) is 7.11.

Turning to `CC(c1cnc(C(=O)N(C)C)c2ccccc12)N(C)C(=O)Nc1ccc(F)c(Cl)c1` (single isomer, unassigned) [Compound 318, 4-(1-(3-(3-Chloro-4-fluorophenyl)-1-methylureido)ethyl)-N,N-dimethylisoquinoline-1-carboxamide], the negative-log EC50 (pEC50) was 4.62.

For the molecule `CC(c1cnc(C(=O)N(C)C)c2ccccc12)N(C)C(=O)Nc1ccc(F)c(Cl)c1` (single isomer, unassigned) [Compound 319, 4-(1-(3-(3-Chloro-4-fluorophenyl)-1-methylureido)ethyl)-N,N-dimethylisoquinoline-1-carboxamide], the negative logarithm of the EC50 (pEC50) was 6.42.

In the case of `CC(c1c[nH]c(=O)c2ccccc12)N(Cc1ccncn1)C(=O)Nc1ccc(F)c(Cl)c1` (single isomer, unassigned) [Compound 321, 3-(3-Chloro-4-fluorophenyl)-1-(1-(1-oxo-1,2-dihydroisoquinolin-4-yl)ethyl)-1-(pyrimidin-4-ylmethyl)urea], the pEC50 is 4.72.

With `CC(c1c[nH]c(=O)c2ccccc12)N(Cc1ccncn1)C(=O)Nc1ccc(F)c(Cl)c1` (single isomer, unassigned) [Compound 322, 3-(3-Chloro-4-fluorophenyl)-1-(1-(1-oxo-1,2-dihydroisoquinolin-4-yl)ethyl)-1-(pyrimidin-4-ylmethyl)urea], the negative logarithm of the EC50 (pEC50) was 6.46.

For `CC(c1c[nH]c(=O)c2ccccc12)N(Cc1cncs1)C(=O)Nc1ccc(F)c(Cl)c1` (single isomer, unassigned) [Compound 323, 3-(3-Chloro-4-fluorophenyl)-1-(1-(1-oxo-1,2-dihydroisoquinolin-4-yl)ethyl)-1-(thiazol-5-ylmethyl)urea], the negative logarithm of the EC50 (pEC50) was 7.07.

Turning to `CC(c1c[nH]c(=O)c2ccccc12)N(Cc1cncs1)C(=O)Nc1ccc(F)c(Cl)c1` (single isomer, unassigned) [Compound 324, 3-(3-Chloro-4-fluorophenyl)-1-(1-(1-oxo-1,2-dihydroisoquinolin-4-yl)ethyl)-1-(thiazol-5-ylmethyl)urea], the pEC50 was 5.35.

For `CC(c1cnc(CO)c2ccccc12)N(C)C(=O)Nc1ccc(F)c(Cl)c1` (single isomer, unassigned) [Compound 326, 3-(3-Chloro-4-fluorophenyl)-1-(1-(1-(hydroxymethyl)isoquinolin-4-yl)ethyl)-1-methylurea], the pEC50 was 4.80.

Take `CC(c1cnc(CO)c2ccccc12)N(C)C(=O)Nc1ccc(F)c(Cl)c1` (single isomer, unassigned) [Compound 327, 3-(3-Chloro-4-fluorophenyl)-1-(1-(1-(hydroxymethyl)isoquinolin-4-yl)ethyl)-1-methylurea]: the negative logarithm of the EC50 (pEC50) was 6.15.

For `CC(c1cnc(C(N)=O)c2ccccc12)N(C)C(=O)Nc1ccc(F)c(Cl)c1` (single isomer, unassigned) [Compound 328, 4-(1-(3-(3-Chloro-4-fluorophenyl)-1-methylureido)ethyl)isoquinoline-1-carboxamide], the pEC50 is 5.39.

`CC(c1cnc(C(N)=O)c2ccccc12)N(C)C(=O)Nc1ccc(F)c(Cl)c1` (single isomer, unassigned) [Compound 329, 4-(1-(3-(3-Chloro-4-fluorophenyl)-1-methylureido)ethyl)isoquinoline-1-carboxamide]: the negative-log EC50 (pEC50) is 6.92.

Take `CC(c1c[nH]c(=O)c2c(F)c(F)ccc12)N(C)C(=O)Nc1ccc(F)c(Cl)c1` (single isomer, unassigned) [Compound 330, 3-(3-Chloro-4-fluorophenyl)-1-(1-(7,8-difluoro-1-oxo-1,2-dihydroisoquinolin-4-yl)ethyl)-1-methylurea]: the pEC50 is 6.00.

On to `CC(c1c[nH]c(=O)c2c(F)c(F)ccc12)N(C)C(=O)Nc1ccc(F)c(Cl)c1` (single isomer, unassigned) [Compound 331, 3-(3-Chloro-4-fluorophenyl)-1-(1-(7,8-difluoro-1-oxo-1,2-dihydroisoquinolin-4-yl)ethyl)-1-methylurea], for which the pEC50 is 7.82.

In the case of `CC(c1cn(C)c(=O)c2c(F)c(F)ccc12)N(C)C(=O)Nc1ccc(F)c(Cl)c1` (single isomer, unassigned) [Compound 332, 3-(3-Chloro-4-fluorophenyl)-1-(1-(7,8-difluoro-2-methyl-1-oxo-1,2-dihydroisoquinolin-4-yl)ethyl)-1-methylurea], the negative-log EC50 (pEC50) is 5.43.

`CC(c1cn(C)c(=O)c2c(F)c(F)ccc12)N(C)C(=O)Nc1ccc(F)c(Cl)c1` (single isomer, unassigned) [Compound 333, 3-(3-Chloro-4-fluorophenyl)-1-(1-(7,8-difluoro-2-methyl-1-oxo-1,2-dihydroisoquinolin-4-yl)ethyl)-1-methylurea]: the pEC50 was 7.89.

Take `CC(c1c[nH]c(=O)c2c(F)c(F)ccc12)N(CCCO)C(=O)Nc1ccc(F)c(Cl)c1` (single isomer, unassigned) [Compound 334, 3-(3-Chloro-4-fluorophenyl)-1-(1-(7,8-difluoro-1-oxo-1,2-dihydroisoquinolin-4-yl)ethyl)-1-(3-hydroxypropyl)urea]: the pEC50 was 5.70.

Consider `CC(c1c[nH]c(=O)c2c(F)c(F)ccc12)N(CCCO)C(=O)Nc1ccc(F)c(Cl)c1` (single isomer, unassigned) [Compound 335, 3-(3-Chloro-4-fluorophenyl)-1-(1-(7,8-difluoro-1-oxo-1,2-dihydroisoquinolin-4-yl)ethyl)-1-(3-hydroxypropyl)urea], for which the pEC50 was 8.22.

As to `CC(c1cnc(C#N)c2ccccc12)N(C)C(=O)Nc1ccc(F)c(Cl)c1` (single isomer, unassigned) [Compound 336, 3-(3-Chloro-4-fluorophenyl)-1-(1-(1-cyanoisoquinolin-4-yl)ethyl)-1-methylurea], the pEC50 was 4.72.

For `CC(c1cnc(C#N)c2ccccc12)N(C)C(=O)Nc1ccc(F)c(Cl)c1` (single isomer, unassigned) [Compound 337, 3-(3-Chloro-4-fluorophenyl)-1-(1-(1-cyanoisoquinolin-4-yl)ethyl)-1-methylurea], the pEC50 is 6.60.

With `CC(C)CN(C(=O)Nc1ccc(F)c(Cl)c1)C(C)c1c[nH]c(=O)c2c(F)c(F)ccc12` (single isomer, unassigned) [Compound 338, 3-(3-Chloro-4-fluorophenyl)-1-(1-(7,8-difluoro-1-oxo-1,2-dihydroisoquinolin-4-yl)ethyl)-1-isobutylurea], the pEC50 is 6.10.

On to `CC(C)CN(C(=O)Nc1ccc(F)c(Cl)c1)C(C)c1c[nH]c(=O)c2c(F)c(F)ccc12` (single isomer, unassigned) [Compound 339, 3-(3-Chloro-4-fluorophenyl)-1-(1-(7,8-difluoro-1-oxo-1,2-dihydroisoquinolin-4-yl)ethyl)-1-isobutylurea], for which the pEC50 is 8.30.

Take `CC(c1cn(C)c(=O)c2cc(F)c(F)cc12)N(C)C(=O)Nc1ccc(F)c(Cl)c1` (single isomer, unassigned) [Compound 340, 3-(3-Chloro-4-fluorophenyl)-1-(1-(6,7-difluoro-2-methyl-1-oxo-1,2-dihydroisoquinolin-4-yl)ethyl)-1-methylurea]: the negative-log EC50 (pEC50) is 5.34.

Regarding `CC(c1cn(C)c(=O)c2cc(F)c(F)cc12)N(C)C(=O)Nc1ccc(F)c(Cl)c1` (single isomer, unassigned) [Compound 341, 3-(3-Chloro-4-fluorophenyl)-1-(1-(6,7-difluoro-2-methyl-1-oxo-1,2-dihydroisoquinolin-4-yl)ethyl)-1-methylurea], the pEC50 was 7.96.

Take `CC(C)CN(C(=O)Nc1ccc(F)c(Cl)c1)C(C)c1cn(C)c(=O)c2cc(F)c(F)cc12` (single isomer, unassigned) [Compound 342, 3-(3-Chloro-4-fluorophenyl)-1-(1-(6,7-difluoro-2-methyl-1-oxo-1,2-dihydroisoquinolin-4-yl)ethyl)-1-isobutylurea]: the pEC50 is 6.21.

The same assay, now with this note: Hepatitis B virus, HepDE19, HepDE19 assay, inhibition of formation of relaxed circular DNA (rcDNA), bDNA quantitation; read-out: DE-19bDNA EC50.
With `CC(c1c[nH]c(=O)c2ccccc12)N(Cc1cncnc1)C(=O)Nc1ccc(F)c(Cl)c1` (single isomer, unassigned) [Compound 320, 3-(3-Chloro-4-fluorophenyl)-1-(1-(1-oxo-1,2-dihydroisoquinolin-4-yl)ethyl)-1-(pyrimidin-5-ylmethyl)urea], the negative-log EC50 (pEC50) was 4.89.

In the case of `CC(c1cnc(C(=O)O)c2ccccc12)N(C)C(=O)Nc1ccc(F)c(Cl)c1` (single isomer, unassigned) [Compound 325, 4-(1-(3-(3-Chloro-4-fluorophenyl)-1-methylureido)ethyl)isoquinoline-1-carboxylic acid], the pEC50 is 5.38.
